These results are taken from patent US11964978B2, “Modulators of STING (stimulator of interferon genes)” (PFIZER INC., priority 2021, dated 2024).

Where two headings read alike, the source gives them in different places. Some results are limits rather than exact numbers.

The subject of test [1] is phosphorylation of IRF3 in THP-1 cells (STING activation). The experiment in a line: Phosphorylation of IRF3: THP-1 cell ELISA. In kind it is cell-based. The conditions noted are these: Homo sapiens, 3 hours incubation, read-out: THP-1 CELL P-IRF3 EC50. The method, then:
Phosphorylation of IRF3: THP-1 cell ELISA
STING activation results in recruitment of TBK1 and phosphorylation of IRF3 transcription factor before induction of type I interferons. THP-1 cells (InvivoGen) were grown in RPMI media plus 2 mM L-glutamine, 10% fetal bovine serum, and 0.5% Pen-Strep. 10^4 cells were seeded in 96-well plates and incubated overnight […]. Compounds serial diluted compounds in media (final 0.5% DMSO) were added to the cells and incubated for an additional 3 hours. After incubation, the plates were centrifuged at 2000 rpm for 5 min. The cells were then lysed in 100 μl RIPA buffer and vortexed for 30 minutes at room temperature. 25 μl of lysate was then transferred to clear polystyrene High Bind plates that had been previously coated with mouse anti-human IRF-3 capture antibody (BD Pharmigen), and allowed to incubate at 4° C. for 16 hours. The plates were then washed and incubated with rabbit anti-phospho-IRF3 detection antibody (Cell Signaling Technologies) for 1.5 hours at room temperature. Finally, an HRP-linked secondary antibody (Cell Signaling Technologies) was added for 30 min before the Glo Substrate Reagent (R&D Systems) was used generate the luminescent signal. The signal was measured using a Perkin-Elmer Envision microplate reader. Data were normalized to “% effect” with a positive control STING agonist that was known to maximize the phosphorylated IRF3 signal and the negative control was DMSO.

Test [2] concerns THP-1 Lucia ISG cells (IRF-inducible Lucia luciferase reporter). The experiment in a line: Interferon-β induction: THP-1 ISG reporter cell line. In kind it is cell-based. The conditions noted are these: THP1-Lucia ISG, 24 hours incubation, read-out: THP-1 Lucia ISG Cells IFN-β EC50. Here is the method: Interferon-β Induction: THP-1 ISG Reporter Cell Line
THP-1 Lucia™ ISG cells (InvivoGen) express the secreted luciferase “Lucia” reporter gene under the control of an IRF-inducible composite promotor comprised of five interferon response elements. THP-1 Lucia™ ISG cells were grown in RPMI media plus 2 mM L-glutamine, 10% fetal bovine serum, and 0.5% Pen-Strep. Hygromycin B and Zeocin were present to maintain stable transfection. 10^4 cells were seeded in 96-well plates and incubated overnight 37° C., 5% CO2. 50 μL of serial diluted compounds in media (final 0.5% DMSO) was and incubated for an additional 24 hours. After incubation, the plates were centrifuged at 2000 rpm for 10 min. 50 μl of cell culture supernatant of each well was transferred to a white, opaque 96-well plate. One pouch of QUANTI-Luc™ (InvivoGen) powder was prepared in 25 mL of endotoxin-free water and 100 μL of prepared warm QUANTI-Luc solution were added to each well containing the supernatant. The luminescence signal was measured using a Perkin-Elmer Envision microplate reader. Data were normalized to “% effect” with a positive control STING agonist that was known to maximize the luciferase signal and the negative control DMSO.

The target in test [3] is T1, R232-STING (Homo sapiens (Human), UniProt Q86WV6, H232R). The experiment in a line: biochemical.
T1 sequence (Q86WV6 155-341 H232R): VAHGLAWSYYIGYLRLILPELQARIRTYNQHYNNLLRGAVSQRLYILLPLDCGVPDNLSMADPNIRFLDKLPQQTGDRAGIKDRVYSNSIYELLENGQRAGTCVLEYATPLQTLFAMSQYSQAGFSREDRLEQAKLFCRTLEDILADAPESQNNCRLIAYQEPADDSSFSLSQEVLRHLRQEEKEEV
The target in test [4] is T1, R232-STING. The conditions noted are these: read-out: R232-STING SPA-IC50 Ki; STING residues 155-341, 100 nM 3H-cGAMP; KI from IC50 with Cheng-Prusoff equation.

Regarding `CCn1nc(C)cc1-c1cn(CC(C)O)c(-c2nc(C(N)=O)cc3c2cnn3C)n1` (racemic) [AIP05, (Rac)-4-[4-(1-ethyl-3-methyl-1H-pyrazol-5-yl)-1-(2-hydroxypropyl)-1H-imidazol-2-yl]-1-methyl-1H-pyrazolo[4,3-c]pyridine-6-carboxamide], the EC50 in test [1] is 1.23 µM; in test [2], 1.25 µM. In addition, the Ki on R232-STING [3] is 0.0271 µM.
For `Cc1cc(-c2cn(C)c(-c3nc(C(N)=O)cc4c3ccn4C)n2)n(CCCO)n1` [AIJ02, 4-{4-[1-(3-hydroxypropyl)-3-methyl-1H-pyrazol-5-yl]-1-methyl-1H-imidazol-2-yl}-1-methyl-1H-pyrrolo[3,2-c]pyridine-6-carboxamide], in that order: 1.51 µM, 1.92 µM and 0.0397 µM.
As for `COCCCn1nc(C)cc1-c1cn(C)c(-c2nc(C(N)=O)cc3c2cnn3CF)n1` [AIN03, 1-(fluoromethyl)-4-{4-[1-(3-methoxypropyl)-3-methyl-1H-pyrazol-5-yl]-1-methyl-1H-imidazol-2-yl}-1H-pyrazolo[4,3-c]pyridine-6-carboxamide], the concentration giving a half-maximal response (EC50) in test [1] stood at 0.68 µM; in test [2], 0.85 µM. Moreover, the inhibition constant (Ki) at R232-STING [4] came out at 0.0128 µM.
In the case of `CCn1nc(C)c(O)c1-c1cn(C)c(-c2nc(C(N)=O)cc3c2cnn3CC)n1` [AIN04, 1-ethyl-4-[4-(1-ethyl-4-hydroxy-3-methyl-1H-pyrazol-5-yl)-1-methyl-1H-imidazol-2-yl]-1H-pyrazolo[4,3-c]pyridine-6-carboxamide], the EC50 turned out to be 0.37 µM in test [1] and 0.31 µM in test [2]. The Ki at R232-STING [4] came out at 0.0029 µM.
For `CCn1nc(C)cc1-c1cn(CCOC)c(-c2nc(C(N)=O)cc3c2cnn3C)n1` [AIP04, 4-[4-(1-ethyl-3-methyl-1H-pyrazol-5-yl)-1-(2-methoxyethyl)-1H-imidazol-2-yl]-1-methyl-1H-pyrazolo[4,3-c]pyridine-6-carboxamide], in that order: 1.14 µM, 1.24 µM and 0.0352 µM.
The like results for `CCn1nc(C)cc1-c1cn(C)c(-c2nc(C(N)=O)cc3c2cnn3C)n1` [Example AIA01, 4-[4-(1-ethyl-3-methyl-1H-pyrazol-5-yl)-1-methyl-1H-imidazol-2-yl]-1-methyl-1H-pyrazolo[4,3-c]pyridine-6-carboxamide] were, in that order, 0.67 µM, 0.82 µM and 0.0107 µM.
For `CCn1nc(C)cc1-c1cn(C)c(-c2nc(C(N)=O)cc3c2cnn3CC)n1` [Example AIC01, 1-ethyl-4-[4-(1-ethyl-3-methyl-1H-pyrazol-5-yl)-1-methyl-1H-imidazol-2-yl]-1H-pyrazolo[4,3-c]pyridine-6-carboxamide], in that order: 1.26 µM, 1.17 µM and 0.0121 µM.
Take `CCc1nc(C)cn1-c1cn(C)c(-c2nc(C(N)=O)cc3c2cnn3C)n1` [Example AID01, 4-(2-ethyl-1′,4-dimethyl-1′H-[1,4′-biimidazol]-2′-yl)-1-methyl-1H-pyrazolo[4,3-c]pyridine-6-carboxamide]: the concentration giving a half-maximal response (EC50) is 6.42 µM in test [1] and 6.31 µM in test [2]. Further, on R232-STING [4], the Ki was found to be 0.0875 µM.
The like results for `Cc1cc(-c2cn(C)c(-c3nc(C(N)=O)cc4c3cnn4C)n2)n(CCCO)n1` [Example AIE01, 4-{4-[1-(3-hydroxypropyl)-3-methyl-1H-pyrazol-5-yl]-1-methyl-1H-imidazol-2-yl}-1-methyl-1H-pyrazolo[4,3-c]pyridine-6-carboxamide] were, in that order, 0.2 µM, 0.22 µM and 0.0036 µM.
Take `CCCn1nc(C)cc1-c1cn(C)c(-c2nc(C(N)=O)cc3c2cnn3C)n1` [Example AIF01, 1-methyl-4-[1-methyl-4-(3-methyl-1-propyl-1H-pyrazol-5-yl)-1H-imidazol-2-yl]-1H-pyrazolo[4,3-c]pyridine-6-carboxamide]: the EC50 worked out at 0.5 µM in test [1] and 0.54 µM in test [2]. Moreover, the Ki on R232-STING [4] was found to be 0.0098 µM.
For the compound `CCn1nc(C)cc1-c1cn(C)c(-c2nc(C(N)=O)nc3c2cnn3C)n1` [Example AIG01, 4-[4-(1-ethyl-3-methyl-1H-pyrazol-5-yl)-1-methyl-1H-imidazol-2-yl]-1-methyl-1H-pyrazolo[3,4-d]pyrimidine-6-carboxamide], the EC50 in test [1] and in test [2] was greater than 10 µM in each case. Further, the Ki on R232-STING [4] was 0.0818 µM.
`CCn1ncc2c(-c3nc(-c4cc(C)nn4CCCO)cn3C)nc(C(N)=O)cc21` [Example AIJ01, 1-ethyl-4-{4-[1-(3-hydroxypropyl)-3-methyl-1H-pyrazol-5-yl]-1-methyl-1H-imidazol-2-yl}-1H-pyrazolo[4,3-c]pyridine-6-carboxamide]: the EC50 in test [1] came out at 0.4 µM; in test [2], 0.45 µM. Also, the Ki on R232-STING [4] stood at 0.0102 µM.
As for `CCn1cc(-c2cc(C)nn2CCCOC)nc1-c1nc(C(N)=O)cc2c1cnn2C` [Example AIK01, 4-{1-ethyl-4-[1-(3-methoxypropyl)-3-methyl-1H-pyrazol-5-yl]-1H-imidazol-2-yl}-1-methyl-1H-pyrazolo[4,3-c]pyridine-6-carboxamide], the EC50 was 0.33 µM in test [1] and 0.43 µM in test [2]. Also, the Ki at R232-STING [4] came to 0.0152 µM.
For `Cc1cc(-c2cn(C)c(-c3nc(C(N)=O)cc4c3cnn4C)n2)n(CCCOC(F)F)n1` [Example AIL01, 4-(4-{1-[3-(difluoromethoxy)propyl]-3-methyl-1H-pyrazol-5-yl}-1-methyl-1H-imidazol-2-yl)-1-methyl-1H-pyrazolo[4,3-c]pyridine-6-carboxamide], in that order: 0.53 µM, 0.53 µM and 0.0246 µM.
Take `COCCCn1nc(C)cc1-c1cn(C)c(-c2nc(C(N)=O)cc3c2cnn3C2CC2)n1` [Example AIN01, 1-cyclopropyl-4-{4-[1-(3-methoxypropyl)-3-methyl-1H-pyrazol-5-yl]-1-methyl-1H-imidazol-2-yl}-1H-pyrazolo[4,3-c]pyridine-6-carboxamide]: the values for the 50% effective concentration (EC50) in test [1] and in test [2] were 0.73 µM and 0.8 µM, respectively. Further, at R232-STING [4], the Ki worked out at 0.0046 µM.
As for `Cc1cc(-c2cn(C)c(-c3nc(C(N)=O)cc4c3cnn4C)n2)n(CC#N)n1` [Example AIP01, 4-{4-[1-(cyanomethyl)-3-methyl-1H-pyrazol-5-yl]-1-methyl-1H-imidazol-2-yl}-1-methyl-1H-pyrazolo[4,3-c]pyridine-6-carboxamide], the concentration giving a half-maximal response (EC50) in test [1] and in test [2] was greater than 10 µM each time. At R232-STING [4], the Ki was found to be 0.0431 µM.
`Cc1cc(-c2cn(C)c(-c3nc(C(N)=O)cc4c3cnn4C)n2)n(CC(N)=O)n1` [Example AIP02, 4-{4-[1-(2-amino-2-oxoethyl)-3-methyl-1H-pyrazol-5-yl]-1-methyl-1H-imidazol-2-yl}-1-methyl-1H-pyrazolo[4,3-c]pyridine-6-carboxamide]: the EC50 in test [1] and in test [2] was greater than 10 µM throughout. The Ki on R232-STING [4] amounted to 0.161 µM.
On to `Cc1cc(-c2cn(C)c(-c3nc(C(N)=O)cc4c3cnn4C)n2)n(CCC#N)n1` [Example AIQ01, 4-{4-[1-(2-cyanoethyl)-3-methyl-1H-pyrazol-5-yl]-1-methyl-1H-imidazol-2-yl}-1-methyl-1H-pyrazolo[4,3-c]pyridine-6-carboxamide], for which the EC50 was determined as 2.24 µM in test [1] and 2.26 µM in test [2]. Also, the Ki at R232-STING [4] was 0.0626 µM.
